Where a name gives a salt, the structure may show the parent alone.
System: Digitaria sanguinalis
Experiment: Test Example 1 (Foliage Treatment Test), herbicidal effect by visual observation
Assay type: in vivo
Settings: foliar application at six-leaf stage, 27 days after treatment
From the text: Upland soil was placed in 1/10,000-are (are (a) = 100 m²) pots and sown with Digitaria sanguinalis. When the plants reached the six-leaf stage, a predetermined amount of each herbicidal composition which had been diluted with 10 ℓ, per are, of water and further admixed with 0.2 % (v/v) of a spreader (Shin Rino®: manufactured by Nihon Nohyaku Co., Ltd.) was foliarly applied on the plants using a small spray gun. 27 days after the foliage treatment application, the herbicidal effect of the herbicidal composition was examined through visual observation according to the following evaluation criteria.

Structure (SMILES)	Rating (0.25 g/a active ingredient)	Rating (0.5 g/a active ingredient)	Rating (1 g/a active ingredient)	Rating (2.5 g/a active ingredient)	Rating (5 g/a active ingredient)
COc1cc(OC)nc(NC(=O)NS(=O)(=O)c2ncccc2C(F)(F)F)n1 [Compound A, 1-(4,6-dimethoxy-pyrimidin-2-yl)-3-(3-trifluoromethyl-2-pyridylsulfonyl)urea]	2 (20 to 29)	3 (30 to 39)	3 (30 to 39)	–	–
O=C(O)CNCP(=O)(O)O [Isopropylamine salt of Compound B, isopropylamine salt of N-(phosphonomethyl)glycine, reference compound]	–	–	–	4 (40 to 49)	6 (60 to 69)

— patent EP0475392B1, “Herbicidal composition” (ISHIHARA SANGYO KAISHA, Ltd., priority 1990, dated 1992)
